Literature values, collected in US11504387B2, “Bioconversion of oleuropein” (SOCIETE DES PRODUITS NESTLE S.A., priority 2017, dated 2022).

Experiments:
[1] = compared to caffeic acid, oleuropein and hydroxytyrosol
[2] = in vivo
[3] = upper gastrointestinal tract and small intestine
[4] = compared with hydroxytyrosol

**Q.** What does the source list for `CC=C1C(O)OC=C(C(=O)OC)C1CC(=O)OCCc1ccc(O)c(O)c1` (stereo not shown) [oleuropein aglycone, 3,4-dihydroxyphenylethanol-elenolic acid]?
**A.** antioxidant activity [1]: comparable to that of caffeic acid, oleuropein and hydroxytyrosol; clearance from the plasma [2]: slower clearance from the plasma compared with hydroxytyrosol and oleuropein

**Q.** Which resistance to degradation [3] does the source give for `C/C=C1/[C@H](O[C@@H]2O[C@H](CO)[C@@H](O)[C@H](O)[C@H]2O)OC=C(C(=O)OC)[C@H]1CC(=O)OCCc1ccc(O)c(O)c1` [oleuropein] here?
**A.** resists degradation in the upper gastrointestinal tract and the small intestine

**Q.** Which “solubility in the lipophilic phases” value [4] does the source give for hydroxytyrosol acetate here?
**A.** more soluble in the lipophilic phases than hydroxytyrosol
